In experiment [1] the test system is HSV thymidine kinase (TK) gene in cells containing an entrapment mutation in the Hesx1 gene. Put plainly: TK gene loss, selection in gancyclovir. It is filed as cell-based, mouse. The conditions noted are these: Table 2. The method, then: Two types of experiments were performed to assess whether frequencies of LOH were transiently or stably elevated following carcinogen exposure. First, cells were treated with MNU and HU as before and the percentages of cells having undergone LOH were determined by selection in 2.0 mg/ml G418 at various times thereafter. Over 90% of the total LOH was induced within 24 hours of MNU and HU exposure, and only minimal additional LOH occurred subsequently (FIG. 14). Second, it was asked whether LOH frequencies at a second locus were elevated in cells having undergone LOH at the entrapment locus. For this, a Herpes Simplex Virus thymidine kinase (TK) gene was introduced into cells containing an entrapment allele of the Hesx1 gene and frequencies of TK gene loss were measured by selection in gangcyclovir. These studies utilized the cell line containing the TK gene (C8TK1) and derivatives of C8TK1 that had undergone LOH at the entrapment locus either spontaneously (C8TK1sN) or after treatment with either MNU (C8TKmN) or HU (C8TK1hN). […] Moreover, the stability of the TK gene following carcinogen treatment was largely unaffected by prior selection for LOH involving the entrapment locus. Similar results were also obtained with a second TK-containing line (C8TK2, Table 4). Together these experiments indicate that carcinogen-induced LOH results from an acute response rather than from a stably altered cellular phenotype.
Serially diluted cells were plated onto 150 mm plates containing drug-free media and allowed to attach overnight. Unattached cells were removed and media containing the indicated concentrations of methyl-nitrosourea, hydroxyurea, ethidium bromide, doxorubicin, methotrexate, diepoxybutane, or mitomycin C was put onto cells for 4 hours (or cells were exposed to ultraviolet light in the absence of media and allowed to recover in drug-free media for 4 hours). Cells were then rinsed twice with drug-free media and selection media containing 0.0, 0.3, or 2.0 mg/ml G418 was put onto cells. After 12 days of selection, the number of colonies surviving was counted and the frequency of colony formation was determined by dividing the number of colonies obtained from 2.0 mg/ml G418 selection to that obtained from parallel experiments with 0.3 mg/ml G418 selection. TK gene loss was assessed following selection in media containing 2 μg/ml gancyclovir.
Table 2. […] The HSV thymidine kinase (TK) gene was introduced into cells containing an entrapment mutation in the Hesx1 gene. A TK expressing (TK^+) clone (C8TK1) was used to select for cells that had undergone LOH at the entrapment locus (EL) spontaneously (C8TK1sN) or following treatment with HU (C8TK1hN) or MNU (C8TK1mN). The frequencies of TK gene loss were compared in cells with and without prior selection for LOH at the entrapment locus and the differences were expressed as the indicated ratios.
Table 4. Carcinogen-induced LOH does generate genetically unstable cells. The HSV thymidine kinase (TK) gene was introduced into cells containing an entrapment mutation in the Hesx1 gene. A TK expressing (TK+) clone (C8TK2) was used to select for cells that had undergone LOH at the entrapment locus (EL) spontaneously (C8TK2sN) or following treatment with HU (C8TK2hN) or MNU (C8TK2mN). The frequencies of spontaneous TK gene loss (Treatment=none) or TK gene loss following treatment with HU or MNU were compared in cells with (EL^−/−) and without prior selection for LOH (EL^+/+) at the entrapment locus and the differences were expressed as the indicated ratios.

For experiment [2] the test system is unchanged. Kind of experiment: TK gene loss, selection in gancyclovir. It counts as cell-based, mouse.

On to `NC(=O)NO` [HU, hydroxyurea], for which the “Ratio of Freq. TK loss” value in experiment [1] (C8TK1sN and C8TK1hN, Treatment HU) is recorded as 1.7; in experiment [2] (Table 2, C8TK1sN and C8TK1hN, Treatment none), 0.6; in experiment [2] (Table 4, printed C8TK1sN and C8TK1hN, Treatment HU), 1.8; in experiment [2] (Table 4, printed C8TK1sN and C8TK1hN, Treatment none) it was 2.3. Also, the “Freq. TK loss” value in experiment [1] (clone C8TK1hN (EL LOH induced by HU), Treatment HU) is listed as 3.9 × 10^−4; in experiment [1] (clone C8TK1hN (EL LOH induced by HU, TK+ EL−/−), Treatment none) it was 8.4 × 10^−5; in experiment [1] (clone C8TK1sN (Spont. EL LOH), Treatment HU), 2.3 × 10^−4; in experiment [2] (Table 4, clone printed C8TK1hN (EL LOH induced by HU), Treatment HU), 4.9 × 10^−4; in experiment [2] (Table 4, clone printed C8TK1hN (EL LOH induced by HU, TK+ EL−/−), Treatment none), 1.2 × 10^−5; in experiment [2] (Table 4, clone printed C8TK1sN (Spont. EL LOH), Treatment HU) it was 2.8 × 10^−4.
As to `CN(N=O)C(N)=O` [MNU, methyl-nitrosourea], the “Freq. TK loss” value in experiment [1] (clone C8TK1mN (EL LOH induced by MNU), Treatment MNU) is 4.7 × 10^−4; in experiment [1] (clone C8TK1mN (EL LOH induced by MNU, TK+ EL−/−), Treatment none), 1.4 × 10^−5; in experiment [1] (clone C8TK1sN (Spont. EL LOH), Treatment MNU) it was 2.6 × 10^−4; in experiment [2] (Table 4, clone printed C8TK1mN (EL LOH induced by MNU), Treatment MNU), 4.5 × 10^−4; in experiment [2] (Table 4, clone printed C8TK1mN (EL LOH induced by MNU, TK+ EL−/−), Treatment none), 1.3 × 10^−5; in experiment [2] (Table 4, clone printed C8TK1sN (Spont. EL LOH), Treatment MNU), 2.9 × 10^−4. Besides, the “Ratio of Freq. TK loss” value is listed as 2.6 in experiment [2] (Table 2, C8TK1mN and C8TK1sN, Treatment none); 1.8 in experiment [2] (Table 2, C8TK1sN and C8TK1mN, Treatment MNU); 2.4 in experiment [2] (Table 4, printed C8TK1mN and C8TK1sN, Treatment none); 1.6 in experiment [2] (Table 4, printed C8TK1sN and C8TK1mN, Treatment MNU).

For the origin of these results see patent US20100021895A1, “Vectors for Inducing Homozygous Mutations and Methods of Using Same” (priority 2006, published 2010).
